For eight molecules, inhibition and IC50 results are on record in patent US10385057B2, “Pyrazole compounds and methods of making and using same” (Lundbeck La Jolla Research Center, Inc., priority 2015, dated 2019).

Assay [1] addresses T1, MAGL (Mus musculus, UniProt O35678).
T1 construct: mouse brain membrane fraction or cell lysates for mouse assays; from tissue
T1 sequence (O35678 1-303): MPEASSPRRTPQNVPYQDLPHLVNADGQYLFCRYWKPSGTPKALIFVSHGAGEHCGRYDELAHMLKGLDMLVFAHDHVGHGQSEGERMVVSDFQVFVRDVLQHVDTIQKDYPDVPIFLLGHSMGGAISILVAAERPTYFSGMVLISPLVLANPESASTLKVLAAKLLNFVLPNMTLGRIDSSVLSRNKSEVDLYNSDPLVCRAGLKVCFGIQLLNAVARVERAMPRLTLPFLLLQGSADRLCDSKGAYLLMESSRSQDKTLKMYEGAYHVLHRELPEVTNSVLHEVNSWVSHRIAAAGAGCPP
Briefly: Mouse brain proteomes from inhibitor treated mice, MAGL. The assay is classed as in vivo. To be noted: oral gavage, brain 4 h after administration, read-out: MAGL % inh. 5 mg/kg (mouse). The protocol:
Preparation of Mouse Brain Proteomes from Inhibitor Treated Mice.
Inhibitors were administered to wild-type C57Bl/6J by oral gavage in a vehicle of polyethylene glycol. Each animal was sacrificed 4 h following administration and brain proteomes were prepared and analyzed according to previously established methods (See Niphakis, M. J., et al. (2011) ACS Chem. Neurosci. and Long, J. Z., et al. Nat. Chem. Biol. 5:37-44).

Assay [2] addresses T1, MAGL. Nature of the assay: In vitro competitive activity-based protein profiling, mouse MAGL. The assay is classed as biochemical. To be noted: for inhibition at 1 µM: read-out: MAGL % inh. 1 μM (mouse). Put shortly: (§1)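 Mouse brain membranes or cell lysates (mouse) and human prefrontal cortex or cell membrane fractions (human), 1.0 mg/mL protein, preincubated with inhibitor 30 min at 37 °C, then FP-Rh or HT-01 probe 30 min at 37 °C. SDS-PAGE; MAGL and FAAH activity from in-gel fluorescence band intensity.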

In the next assay the target is T2, FAAH (Mus musculus, UniProt O08914).
T2 construct: mouse brain membrane fraction or cell lysates for mouse assays; from tissue
T2 sequence (O08914 1-579): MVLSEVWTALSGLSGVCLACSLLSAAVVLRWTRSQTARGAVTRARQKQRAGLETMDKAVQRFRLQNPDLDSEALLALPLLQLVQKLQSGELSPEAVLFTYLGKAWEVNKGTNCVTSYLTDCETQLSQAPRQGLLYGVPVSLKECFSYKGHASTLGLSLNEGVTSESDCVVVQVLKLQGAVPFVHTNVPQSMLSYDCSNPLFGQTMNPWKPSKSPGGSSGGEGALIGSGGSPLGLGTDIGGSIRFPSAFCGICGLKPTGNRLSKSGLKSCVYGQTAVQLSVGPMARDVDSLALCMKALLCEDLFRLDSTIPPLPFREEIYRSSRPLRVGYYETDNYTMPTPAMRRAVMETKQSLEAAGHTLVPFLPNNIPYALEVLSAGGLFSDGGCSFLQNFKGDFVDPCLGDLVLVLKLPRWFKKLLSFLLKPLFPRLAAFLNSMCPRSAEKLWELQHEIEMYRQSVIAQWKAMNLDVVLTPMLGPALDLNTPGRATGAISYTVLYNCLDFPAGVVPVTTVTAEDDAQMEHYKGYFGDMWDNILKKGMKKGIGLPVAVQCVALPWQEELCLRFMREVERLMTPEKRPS
Briefly: In vitro competitive activity-based protein profiling, mouse FAAH. The assay is classed as biochemical. Conditions: for inhibition at 1 µM: read-out: FAAH % inh. 1 μM (mouse). Put shortly:
as §1

On to `CN(Cc1ccccc1Cl)[C@@H]1C[C@@H]2CN(C(=O)n3cc(C(N)=O)cn3)C[C@@H]2C1` [Example 88, 1-(cis-5-((2-chlorobenzyl)(methyl)amino)octahydrocyclopenta[c]pyrrole-2-carbonyl)-1H-pyrazole-4-carboxamide], for which the inhibition at 5 mg/kg at MAGL [1] is no less than 75%. For the same molecule, at MAGL [2], the 50% inhibitory concentration (IC50) lay in the range of 100 to 1000 nM and the inhibition at 1 µM is no less than 75%. In addition, on FAAH, the IC50 was no more than 100 nM and the inhibition at 1 µM was no less than 75%.
Consider `CN(Cc1ccccc1C(F)(F)F)[C@@H]1C[C@@H]2CN(C(=O)n3cc(C(N)=O)cn3)C[C@@H]2C1` [Example 90, 1-(cis-5-(methyl(2-(trifluoromethyl)benzyl)amino)octahydrocyclopenta[c]pyrrole-2-carbonyl)-1H-pyrazole-4-carboxamide], for which the inhibition at 5 mg/kg at MAGL [1] is no less than 75%. The inhibition at 1 µM at MAGL [2] and at FAAH was no less than 75% in each case.
`CN(Cc1ccccc1Cl)[C@H]1C[C@@H]2CN(C(=O)n3cc(C(N)=O)cn3)C[C@@H]2C1` [Example 96, 1-(trans-5-((2-chlorobenzyl)(methyl)amino)octahydrocyclopenta[c]pyrrole-2-carbonyl)-1H-pyrazole-4-carboxamide]: the inhibition at 5 mg/kg on MAGL [1] was no less than 75%. Also, at MAGL [2], the half-maximal inhibitory concentration (IC50) lay in the range of 100 to 1000 nM and the inhibition at 1 µM was no less than 75%. Further, on FAAH, the IC50 is no more than 100 nM and the inhibition at 1 µM was no less than 75%.
In the case of `O=C(N1CCC2(CCN(Cc3ccccc3Cl)C2)C1)n1cc(Cl)cn1` (centres unmarked) [Example 112, (4-chloro-1H-pyrazol-1-yl)(7-(2-chlorobenzyl)-2,7-diazaspiro[4.4]nonan-2-yl)methanone], on MAGL [1], the inhibition at 5 mg/kg fell in the range of 0 to 25%. In addition, at MAGL [2], the IC50 was in the range of 100 to 1000 nM and the inhibition at 1 µM was no less than 75%. Moreover, at FAAH, the concentration for half-maximal inhibition (IC50) was no more than 100 nM and the inhibition at 1 µM is no less than 75%.
For `O=C(N1CC2CN(Cc3ccccc3Cl)CC2C1)n1cc(Cl)cn1` (centres unmarked) [Example 116, (4-chloro-1H-pyrazol-1-yl)(5-(2-chlorobenzyl)hexahydropyrrolo[3,4-c]pyrrol-2(1H)-yl)methanone], the inhibition at 5 mg/kg at MAGL [1] fell in the range of 25 to 50%. For the same molecule, at MAGL [2], the IC50 fell in the range of 100 to 1000 nM and the inhibition at 1 µM was no less than 75%. In addition, at FAAH, the 50% inhibitory concentration (IC50) was no more than 100 nM and the inhibition at 1 µM was no less than 75%.
As for `O=C(N1CC2CN(Cc3ccc(Cl)cc3)CC2C1)n1cc(Cl)cn1` (centres unmarked) [Example 118, (4-chloro-1H-pyrazol-1-yl)(5-(4-chlorobenzyl)hexahydropyrrolo[3,4-c]pyrrol-2(1H)-yl)methanone], the inhibition at 5 mg/kg on MAGL [1] was no less than 75%. At MAGL [2], the 50% inhibitory concentration (IC50) lay within 100 to 1000 nM and the inhibition at 1 µM is no less than 75%. Besides, on FAAH, the IC50 was no more than 100 nM and the inhibition at 1 µM was no less than 75%.
Take `O=C(N1CC2CN(Cc3ccc(Cl)c(Cl)c3)CC2C1)n1cc(Cl)cn1` (centres unmarked) [Example 119, (4-chloro-1H-pyrazol-1-yl)(5-(3,4-dichlorobenzyl)hexahydropyrrolo[3,4-c]pyrrol-2(1H)-yl)methanone]: the inhibition at 5 mg/kg at MAGL [1] was no less than 75%. Also, the half-maximal inhibitory concentration (IC50) at MAGL [2] and at FAAH was no more than 100 nM each time. Further, the inhibition at 1 µM on MAGL [2] and on FAAH was no less than 75% throughout.
With `Cc1cc(-c2ccccc2)ccc1CN1CCC2(CCN(C(=O)n3cc(Cl)cn3)C2)C1` (centres unmarked) [Example 130, (4-chloro-1H-pyrazol-1-yl)(7-((3-methyl-[1,1′-biphenyl]-4-yl)methyl)-2,7-diazaspiro[4.4]nonan-2-yl)methanone], the inhibition at 5 mg/kg on MAGL [1] is no less than 75%. Moreover, on MAGL [2], the half-maximal inhibitory concentration (IC50) was no more than 100 nM and the inhibition at 1 µM is no less than 75%. Also, at FAAH, the IC50 is no more than 100 nM and the inhibition at 1 µM was no less than 75%.

Broadly, the IC50 is the concentration that inhibits the measured activity by half. Low values mean inhibition by little substance, high ones a need for much substance.
